Legend:
Ovis aries = species on record: Ovis aries; experiment: Selectivity index, ratio of IC50 for inhibition of ovine COX-1 to IC50 for inhibition of ovine COX-2
[1] = Selectivity index, ratio of IC50 for COX-2 (unknown origin) to IC50 for COX-1 (unknown origin)
[2] = Inhibition of soya bean 15-LOX by enzyme immune assay; parameters: species or system Glycine max
Rattus norvegicus [3] = experiment: Acute ulcerogenic activity in Albino Wistar rat assessed as ulcer index at 18 mg/kg via oral gavage once daily for 3 days; type: toxicity, organism-based; conditions: in vivo, 72 h, time 3 day
Rattus norvegicus [4] = experiment: Antiinflammatory activity in formalin-induced paw edema in Wistar albino rat model assessed as reduction in paw edema volume at 18 mg/kg, po administered once daily via gavage by 7 days; type: functional; parameters: scale not given: the % may be the effect or the level left; conditions: time 7 day

| Structure (SMILES) | Ratio IC50 (Ovis aries) | also measured |
| --- | --- | --- |
| COc1ccc(/C(N)=N/OC(=O)C(C)c2ccc3cc(OC)ccc3c2)cc1 (configuration not stated) | – | Ratio IC50 [1]: 13 |
| CSc1nn(C(=O)c2c(C)nn(-c3ccc(S(N)(=O)=O)cc3)c2N)c(N)c1C#N | 247 | – |
| COc1ccc2cc(C(C)C(=O)O/N=C(\N)c3ccc(Cl)cc3)ccc2c1 (configuration not stated) | – | Ratio IC50 [1]: 13 |
| Cc1ccc(Cl)c(Nc2ccccc2C(=O)O)c1Cl | – | IC50 [2]: 5.64 µM |
| CCOC(=O)c1cnn(C(=O)c2c(C)nn(-c3ccc(S(C)(=O)=O)cc3)c2N)c1N | 247 | – |
| COc1ccc2cc(C(C)C(=O)O/N=C(\N)c3ccc(OC)c(OC)c3)ccc2c1 (configuration not stated) | – | Ratio IC50 [1]: 13 |
| COc1ccc(-n2c(-c3ccc(C)cc3)cs/c2=N\NC(=O)Cn2nc(C)cc2-c2ccc(Cl)cc2)cc1 | – | UI (Rattus norvegicus [3]): 0 |
| CCCn1c(-c2ccc(Cl)cc2)cs/c1=N\NC(=O)Cn1nc(C)cc1C | – | Activity (Rattus norvegicus [4]): 97.3% |

Second part, led by results:

| Ratio IC50 (Ovis aries) | Structure (SMILES) | also measured |
| --- | --- | --- |
| 247 | Cc1cc(C)n(C(=O)c2cnn(-c3ccc(S(C)(=O)=O)cc3)c2N)n1 | – |
| 247 | CSc1nn(C(=O)c2cnn(-c3ccc(S(C)(=O)=O)cc3)c2N)c(N)c1C#N | – |
| 247 | CCOC(=O)c1cnn(C(=O)c2cnn(-c3ccc(S(C)(=O)=O)cc3)c2N)c1N | – |
| 247 | CCOC(=O)c1c(C)nn(C(=O)c2cnn(-c3ccc(S(C)(=O)=O)cc3)c2N)c1N | – |
